Experimental data taken from ChEMBL document CHEMBL1134093, “Amidino benzimidazole inhibitors of bacterial two-component systems” (Bioorg Med Chem Lett, 2001).
Converted amounts (≈) assume the structure as drawn.

Assays:
[1] = molecular target: T1, KinA/Spo0F (sporulation kinase A/sporulation initiation phosphotransferase F) (Bacillus subtilis (strain 168), UniProt P06628+P16497); assay: Inhibition of KinA/Sp0F system two component (TCS) from Bacillus subtilis.; type: protein assay
T1 sequence (P06628 whole entry): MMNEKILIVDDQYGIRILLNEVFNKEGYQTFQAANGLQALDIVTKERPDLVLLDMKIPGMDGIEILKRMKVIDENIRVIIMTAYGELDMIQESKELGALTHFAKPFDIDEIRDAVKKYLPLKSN
T1 sequence (P16497 whole entry): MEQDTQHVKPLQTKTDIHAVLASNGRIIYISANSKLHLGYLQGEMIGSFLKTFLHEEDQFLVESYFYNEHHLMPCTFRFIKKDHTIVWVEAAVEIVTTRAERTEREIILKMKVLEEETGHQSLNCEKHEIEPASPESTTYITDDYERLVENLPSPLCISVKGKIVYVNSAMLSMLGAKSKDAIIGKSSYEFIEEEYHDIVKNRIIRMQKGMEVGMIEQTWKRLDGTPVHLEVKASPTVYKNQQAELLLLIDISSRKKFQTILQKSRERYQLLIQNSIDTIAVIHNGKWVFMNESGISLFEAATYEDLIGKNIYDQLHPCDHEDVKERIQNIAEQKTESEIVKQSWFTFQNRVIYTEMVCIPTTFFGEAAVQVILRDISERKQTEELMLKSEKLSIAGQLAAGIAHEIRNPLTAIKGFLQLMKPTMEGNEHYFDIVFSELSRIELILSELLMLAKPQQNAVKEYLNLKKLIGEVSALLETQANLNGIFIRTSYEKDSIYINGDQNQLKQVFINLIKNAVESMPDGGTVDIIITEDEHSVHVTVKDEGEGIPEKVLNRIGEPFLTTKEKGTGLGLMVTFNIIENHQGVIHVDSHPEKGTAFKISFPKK

Enterococcus faecalis = assay: Inhibition of growth of Enterococcus faecalis OC 3041.; type: functional
Staphylococcus aureus [2] = assay: Inhibition of growth of Staphylococcus aureus ATCC 29213.; type: functional
Staphylococcus aureus [3] = assay: Inhibition of growth of methicillin resistant Staphylococcus aureus MRSA OC 2089.; type: functional
Enterococcus faecium = assay: Inhibition of growth of Vancomycin resistant Enterococcus faecium (VRE) OC 3312.
[4] = molecular target: T1, KinA/Spo0F (sporulation kinase A/sporulation initiation phosphotransferase F); assay: Inhibition of KinA/Sp0F system two component system (TCS) from Bacillus subtilis; type: protein assay
Staphylococcus aureus [5] = assay: Compound was evaluated for inhibition of growth of Staphylococcus aureus ATCC 29213; type: functional
Staphylococcus aureus [6] = assay: Compound was evaluated for inhibition of growth of methicillin resistant Staphylococcus aureus MRSA OC 2089; type: functional

SMILES | IC50 [1] | MIC (Enterococcus faecalis) | MIC (Staphylococcus aureus [2]) | MIC (Staphylococcus aureus [3]) | MIC (Enterococcus faecium) | IC50 [4] | MIC (Staphylococcus aureus [5]) | MIC (Staphylococcus aureus [6])
N=C(N)c1ccc2nc(-c3ccc(-c4ccccc4)cc3)[nH]c2c1 | 88 µM | – | – | – | – | – | – | –
CC(C)(C)c1cccc(-c2nc3cc(C(=N)N)ccc3[nH]2)c1O | 6 µM | 2 µg/mL (≈ 6.49 µM) | 1 µg/mL (≈ 3.24 µM) | 1 µg/mL (≈ 3.24 µM) | 2 µg/mL (≈ 6.49 µM) | – | – | –
N=C(N)c1ccc(Oc2ccc(-c3cc4ccc(C(=N)N)cc4[nH]3)cc2)cc1 | – | 1 µg/mL (≈ 2.71 µM) | 1 µg/mL (≈ 2.71 µM) | 0.5 µg/mL (≈ 1.35 µM) | 0.5 µg/mL (≈ 1.35 µM) | 31 µM | – | –
CC(C)(N)CNC(=O)c1ccc2[nH]c(-c3cc(C(C)(C)C)cc(C(C)(C)C)c3O)nc2c1 | 10 µM | – | – | – | – | – | – | –
N=C(N)c1ccc2oc(-c3ccc(Oc4ccccc4)cc3)nc2c1 | 138 µM | – | – | – | – | – | – | –
N=C(N)c1ccc2nc(-c3ccc(Oc4ccccc4)cc3)oc2c1 | 49 µM | – | – | – | – | – | – | –
CC(C)(C)c1cc(-c2nc3cc(C4=NCCN4)ccc3[nH]2)c(O)c(C(C)(C)C)c1 | 10 µM | 1 µg/mL (≈ 2.56 µM) | 1 µg/mL (≈ 2.56 µM) | 1 µg/mL (≈ 2.56 µM) | 1 µg/mL (≈ 2.56 µM) | – | – | –
CC(C)(C)c1cc(-c2nc3ccc(C(=N)N)cc3o2)c(O)c(C(C)(C)C)c1 | 15.4 µM | 2 µg/mL (≈ 5.47 µM) | 2 µg/mL (≈ 5.47 µM) | 2 µg/mL (≈ 5.47 µM) | 1 µg/mL (≈ 2.74 µM) | – | – | –
CC(C)(C)c1cc(-c2nc3cc(C(=N)N)ccc3o2)c(O)c(C(C)(C)C)c1 | 14 µM | 1 µg/mL (≈ 2.74 µM) | 1 µg/mL (≈ 2.74 µM) | 1 µg/mL (≈ 2.74 µM) | 1 µg/mL (≈ 2.74 µM) | – | – | –
Cn1c(-c2ccc(Oc3ccccc3)cc2)nc2cc(C(=N)N)ccc21 | 44 µM | > 64 µg/mL | 16 µg/mL (≈ 46.7 µM) | 32 µg/mL (≈ 93.5 µM) | 32 µg/mL (≈ 93.5 µM) | – | – | –
CC(C)(C)c1cc(-c2nc3cc(C(=N)N)ccc3[nH]2)cc(C(C)(C)C)c1 | 25 µM | 4 µg/mL (≈ 11.5 µM) | 2 µg/mL (≈ 5.74 µM) | 4 µg/mL (≈ 11.5 µM) | 4 µg/mL (≈ 11.5 µM) | – | – | –
CC(C)(C)c1cccc(-c2nc3cc(C(=N)N)ccc3[nH]2)c1 | 163 µM | – | – | – | – | – | – | –
COC(=O)c1ccc2[nH]c(-c3cc(C(C)(C)C)cc(C(C)(C)C)c3O)nc2c1 | 380 µM | – | – | – | – | – | – | –
N=C(N)c1ccc2nc(-c3ccc(Oc4ccccc4)cc3)[nH]c2c1 | – | 16 µg/mL (≈ 48.7 µM) | – | – | 16 µg/mL (≈ 48.7 µM) | – | 8 µg/mL (≈ 24.4 µM) | 16 µg/mL (≈ 48.7 µM)
CC(C)(C)c1cc(-c2nc3cc(C(=N)N)ccc3[nH]2)c(O)c(C(C)(C)C)c1 | 12 µM | 2 µg/mL (≈ 5.49 µM) | 1 µg/mL (≈ 2.74 µM) | 2 µg/mL (≈ 5.49 µM) | 1 µg/mL (≈ 2.74 µM) | – | – | –
CC(C)(C)c1ccc(O)c(-c2nc3cc(C(=N)N)ccc3[nH]2)c1 | – | 16 µg/mL (≈ 51.9 µM) | 8 µg/mL (≈ 25.9 µM) | 8 µg/mL (≈ 25.9 µM) | 16 µg/mL (≈ 51.9 µM) | – | – | –
N=C(N)c1ccc2cc(-c3ccc(Oc4ccccc4)cc3)[nH]c2c1 | 7.7 µM | 4 µg/mL (≈ 12.2 µM) | 4 µg/mL (≈ 12.2 µM) | 4 µg/mL (≈ 12.2 µM) | 4 µg/mL (≈ 12.2 µM) | – | – | –
COc1c(-c2nc3cc(C(=N)N)ccc3[nH]2)cc(C(C)(C)C)cc1C(C)(C)C | – | 8 µg/mL (≈ 21.1 µM) | 4 µg/mL (≈ 10.6 µM) | 4 µg/mL (≈ 10.6 µM) | 4 µg/mL (≈ 10.6 µM) | – | – | –
N=C(N)c1ccc2[nH]c(-c3ccc(N(c4ccccc4)c4ccccc4)cc3)nc2c1 | 17 µM | 4 µg/mL (≈ 9.91 µM) | 4 µg/mL (≈ 9.91 µM) | 16 µg/mL (≈ 39.7 µM) | 4 µg/mL (≈ 9.91 µM) | – | – | –
N=C(N)c1ccc2[nH]c(-c3ccccc3)nc2c1 | > 500 µM | – | – | – | – | – | – | –
Cc1onc(-c2ccccc2)c1C(=O)N[C@@H]1C(=O)N2[C@@H]1SC(C)(C)[C@@H]2C(=O)O [OXACILLIN] | – | 16 µg/mL (≈ 39.9 µM) | 0.25 µg/mL (≈ 0.623 µM) | > 64 µg/mL | > 64 µg/mL | – | – | –
